PubChem BioAssay (NCI)
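Grown in 96-well plates, cells were treated for 48 hours with each compound at five concentrations. Insufficient inhibition: endpoint recorded as highest concentration tested. TGI: total growth inhibition.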

Tests used:
Assay in all cases: NCI-60 cell line screen, 48 h
NCI-H460 lung = tested on: NCI-H460 lung
RPMI-8226 leukemia = tested on: RPMI-8226 leukemia
ACHN renal = tested on: ACHN renal
SW-620 colon = tested on: SW-620 colon
HCT-116 colon = tested on: HCT-116 colon
UACC-257 melanoma = tested on: UACC-257 melanoma
OVCAR-8 ovarian = tested on: OVCAR-8 ovarian
IGROV1 ovarian = tested on: IGROV1 ovarian
SNB-75 CNS = tested on: SNB-75 CNS
M14 melanoma = tested on: M14 melanoma
SNB-78 CNS = tested on: SNB-78 CNS
OVCAR-5 ovarian = tested on: OVCAR-5 ovarian
MOLT-4 leukemia = tested on: MOLT-4 leukemia
LOX IMVI melanoma = tested on: LOX IMVI melanoma
M19-MEL melanoma = tested on: M19-MEL melanoma
HL-60(TB) leukemia = tested on: HL-60(TB) leukemia
KM20L2 colon = tested on: KM20L2 colon
A549 NSCLC = tested on: A549 NSCLC
OVCAR-4 ovarian = tested on: OVCAR-4 ovarian
RXF 393 renal = tested on: RXF 393 renal
SR leukemia = tested on: SR leukemia
DMS 273 small cell lung = tested on: DMS 273 small cell lung
786-0 renal = tested on: 786-0 renal
U251 CNS = tested on: U251 CNS
SF-539 CNS = tested on: SF-539 CNS
NCI-H226 lung = tested on: NCI-H226 lung
CAKI-1 renal = tested on: CAKI-1 renal
SF-268 CNS = tested on: SF-268 CNS
HCC-2998 colon = tested on: HCC-2998 colon
CCRF-CEM leukemia = tested on: CCRF-CEM leukemia
OVCAR-3 ovarian = tested on: OVCAR-3 ovarian
SK-MEL-5 melanoma = tested on: SK-MEL-5 melanoma
A498 renal = tested on: A498 renal
K-562 leukemia = tested on: K-562 leukemia
DLD-1 colon = tested on: DLD-1 colon
SF-295 CNS = tested on: SF-295 CNS
SK-MEL-2 melanoma = tested on: SK-MEL-2 melanoma
HOP-92 NSCLC = tested on: HOP-92 NSCLC
HOP-18 NSCLC = tested on: HOP-18 NSCLC
NCI-H522 lung = tested on: NCI-H522 lung
SK-MEL-28 melanoma = tested on: SK-MEL-28 melanoma
MALME-3M melanoma = tested on: MALME-3M melanoma
UACC-62 melanoma = tested on: UACC-62 melanoma
TK-10 renal = tested on: TK-10 renal
SN12C renal = tested on: SN12C renal
NCI-H23 lung = tested on: NCI-H23 lung
SK-OV-3 ovarian = tested on: SK-OV-3 ovarian
KM12 colon = tested on: KM12 colon
HOP-62 NSCLC = tested on: HOP-62 NSCLC
SNB-19 CNS = tested on: SNB-19 CNS
HCT-15 colon = tested on: HCT-15 colon
DMS 114 small cell lung = tested on: DMS 114 small cell lung
LXFL 529 NSCLC = tested on: LXFL 529 NSCLC
COLO 205 colon = tested on: COLO 205 colon
HT29 colon = tested on: HT29 colon
EKVX NSCLC = tested on: EKVX NSCLC
UO-31 renal = tested on: UO-31 renal
XF 498 CNS = tested on: XF 498 CNS

CSc1nc2nn(Cc3ccccc3)cc2c(=O)[nH]1
TGI (NCI-H460 lung): > 100 µM | TGI (RPMI-8226 leukemia): > 100 µM | TGI (ACHN renal): > 100 µM | TGI (SW-620 colon): > 100 µM | TGI (HCT-116 colon): > 100 µM | TGI (UACC-257 melanoma): > 100 µM | TGI (OVCAR-8 ovarian): > 100 µM | TGI (IGROV1 ovarian): > 100 µM | TGI (SNB-75 CNS): > 100 µM | TGI (M14 melanoma): > 100 µM | TGI (SNB-78 CNS): > 100 µM | TGI (OVCAR-5 ovarian): > 100 µM | TGI (MOLT-4 leukemia): > 100 µM | TGI (LOX IMVI melanoma): > 100 µM | TGI (M19-MEL melanoma): > 100 µM | TGI (HL-60(TB) leukemia): > 100 µM | TGI (KM20L2 colon): > 100 µM | TGI (A549 NSCLC): > 100 µM | TGI (OVCAR-4 ovarian): > 100 µM | TGI (RXF 393 renal): > 100 µM | TGI (SR leukemia): > 100 µM | TGI (DMS 273 small cell lung): > 100 µM | TGI (786-0 renal): > 100 µM | TGI (U251 CNS): > 100 µM | TGI (SF-539 CNS): > 100 µM | TGI (NCI-H226 lung): > 100 µM | TGI (CAKI-1 renal): > 100 µM | TGI (SF-268 CNS): > 100 µM | TGI (HCC-2998 colon): > 100 µM | TGI (CCRF-CEM leukemia): > 100 µM | TGI (OVCAR-3 ovarian): > 100 µM | TGI (SK-MEL-5 melanoma): > 100 µM | TGI (A498 renal): > 100 µM | TGI (K-562 leukemia): > 100 µM | TGI (DLD-1 colon): > 100 µM | TGI (SF-295 CNS): > 100 µM | TGI (SK-MEL-2 melanoma): > 100 µM | TGI (HOP-92 NSCLC): > 100 µM | TGI (HOP-18 NSCLC): > 100 µM | TGI (NCI-H522 lung): > 100 µM | TGI (SK-MEL-28 melanoma): > 100 µM | TGI (MALME-3M melanoma): > 100 µM | TGI (UACC-62 melanoma): > 100 µM | TGI (TK-10 renal): > 100 µM | TGI (SN12C renal): > 100 µM | TGI (NCI-H23 lung): > 100 µM | TGI (SK-OV-3 ovarian): > 100 µM | TGI (KM12 colon): > 100 µM | TGI (HOP-62 NSCLC): > 100 µM | TGI (SNB-19 CNS): > 100 µM | TGI (HCT-15 colon): > 100 µM | TGI (DMS 114 small cell lung): > 100 µM | TGI (LXFL 529 NSCLC): > 100 µM | TGI (COLO 205 colon): > 100 µM | TGI (HT29 colon): > 100 µM | TGI (EKVX NSCLC): > 100 µM | TGI (UO-31 renal): > 100 µM

NS(=O)(=O)c1ccc(Nc2c3ccccc3nc3c(C(=O)N4CCN(CCO)CC4)cccc23)cc1
TGI (NCI-H460 lung): > 100 µM | TGI (ACHN renal): > 100 µM | TGI (SW-620 colon): > 100 µM | TGI (HCT-116 colon): > 100 µM | TGI (UACC-257 melanoma): > 100 µM | TGI (OVCAR-8 ovarian): > 100 µM | TGI (IGROV1 ovarian): > 100 µM | TGI (SNB-75 CNS): > 100 µM | TGI (M14 melanoma): > 100 µM | TGI (SNB-78 CNS): > 100 µM | TGI (OVCAR-5 ovarian): > 100 µM | TGI (MOLT-4 leukemia): > 100 µM | TGI (XF 498 CNS): > 100 µM | TGI (LOX IMVI melanoma): > 100 µM | TGI (M19-MEL melanoma): > 100 µM | TGI (HL-60(TB) leukemia): 65.5 µM | TGI (KM20L2 colon): > 100 µM | TGI (A549 NSCLC): > 100 µM | TGI (OVCAR-4 ovarian): > 100 µM | TGI (RXF 393 renal): > 100 µM | TGI (SR leukemia): > 100 µM | TGI (DMS 273 small cell lung): > 100 µM | TGI (786-0 renal): > 100 µM | TGI (U251 CNS): > 100 µM | TGI (SF-539 CNS): > 100 µM | TGI (NCI-H226 lung): > 100 µM | TGI (CAKI-1 renal): > 100 µM | TGI (SF-268 CNS): > 100 µM | TGI (HCC-2998 colon): > 100 µM | TGI (CCRF-CEM leukemia): > 100 µM | TGI (OVCAR-3 ovarian): > 100 µM | TGI (SK-MEL-5 melanoma): > 100 µM | TGI (A498 renal): > 100 µM | TGI (K-562 leukemia): > 100 µM | TGI (SF-295 CNS): > 100 µM | TGI (SK-MEL-2 melanoma): > 100 µM | TGI (HOP-92 NSCLC): > 100 µM | TGI (HOP-18 NSCLC): > 100 µM | TGI (NCI-H522 lung): > 100 µM | TGI (SK-MEL-28 melanoma): > 100 µM | TGI (MALME-3M melanoma): > 100 µM | TGI (UACC-62 melanoma): > 100 µM | TGI (TK-10 renal): > 100 µM | TGI (SN12C renal): > 100 µM | TGI (NCI-H23 lung): > 100 µM | TGI (SK-OV-3 ovarian): > 100 µM | TGI (KM12 colon): > 100 µM | TGI (HOP-62 NSCLC): > 100 µM | TGI (SNB-19 CNS): > 100 µM | TGI (HCT-15 colon): > 100 µM | TGI (DMS 114 small cell lung): > 100 µM | TGI (LXFL 529 NSCLC): > 100 µM | TGI (COLO 205 colon): > 100 µM | TGI (HT29 colon): > 100 µM | TGI (EKVX NSCLC): > 100 µM | TGI (UO-31 renal): > 100 µM
